# Tests used:
# TNKS1 = target: T1, TNKS1 (Homo sapiens, UniProt O95271); assay: Modified TNKS1 Assay 3 (BPS kit #80573, biotin-NAD+, 96 well); type: biochemical; conditions: human TNKS1, BPS kit #80573, 96 well
# T1 sequence (O95271 1-1327): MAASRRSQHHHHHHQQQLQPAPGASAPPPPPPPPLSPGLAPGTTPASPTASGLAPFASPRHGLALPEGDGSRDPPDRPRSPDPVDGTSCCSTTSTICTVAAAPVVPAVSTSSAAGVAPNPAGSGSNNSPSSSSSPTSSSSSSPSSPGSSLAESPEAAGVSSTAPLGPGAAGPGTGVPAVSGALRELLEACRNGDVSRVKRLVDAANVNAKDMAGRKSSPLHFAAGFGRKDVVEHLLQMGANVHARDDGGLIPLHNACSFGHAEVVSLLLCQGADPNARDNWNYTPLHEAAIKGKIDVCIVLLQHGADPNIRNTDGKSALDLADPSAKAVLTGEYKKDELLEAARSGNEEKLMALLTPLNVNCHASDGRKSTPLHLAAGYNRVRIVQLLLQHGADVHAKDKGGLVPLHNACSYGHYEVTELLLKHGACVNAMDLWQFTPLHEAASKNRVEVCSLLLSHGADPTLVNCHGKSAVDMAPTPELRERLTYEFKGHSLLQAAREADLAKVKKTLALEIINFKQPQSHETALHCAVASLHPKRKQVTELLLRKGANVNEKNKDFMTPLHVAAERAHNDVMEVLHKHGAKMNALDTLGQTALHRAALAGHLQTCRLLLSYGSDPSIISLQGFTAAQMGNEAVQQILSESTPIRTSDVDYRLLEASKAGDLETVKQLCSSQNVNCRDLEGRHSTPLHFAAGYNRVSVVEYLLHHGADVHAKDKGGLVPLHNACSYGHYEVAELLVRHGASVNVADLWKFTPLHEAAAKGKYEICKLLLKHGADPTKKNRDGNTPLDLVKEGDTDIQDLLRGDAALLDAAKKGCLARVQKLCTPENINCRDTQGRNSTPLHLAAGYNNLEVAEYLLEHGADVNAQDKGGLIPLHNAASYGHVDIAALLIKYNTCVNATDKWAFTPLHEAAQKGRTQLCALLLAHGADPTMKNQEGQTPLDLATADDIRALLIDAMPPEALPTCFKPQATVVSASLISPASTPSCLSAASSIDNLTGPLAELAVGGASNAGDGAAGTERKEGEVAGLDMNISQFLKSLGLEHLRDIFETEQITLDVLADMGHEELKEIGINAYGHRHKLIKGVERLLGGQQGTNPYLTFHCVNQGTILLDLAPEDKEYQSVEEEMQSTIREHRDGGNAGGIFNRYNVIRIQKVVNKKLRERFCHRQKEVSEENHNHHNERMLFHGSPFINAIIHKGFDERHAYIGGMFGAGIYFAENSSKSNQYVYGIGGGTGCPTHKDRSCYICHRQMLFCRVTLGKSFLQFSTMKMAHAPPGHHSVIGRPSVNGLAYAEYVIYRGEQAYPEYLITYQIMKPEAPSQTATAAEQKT
# Procedure: The potency of the compounds against human TNKS1 according to the invention was assessed using a commercially available biotin/streptavidin binding assay kits from BPS Bioscience, San Diego, USA (Catalog #80573 for TNKS1). The incorporation of a biotin-labeled NAD+ during the […] catalyzed ribosylation of a suitable protein substrate was detected using with a streptavidin-HRP coupled chemi-luminescent readout. The intensity of the readout signal is proportional to the incorporated NAD^+. Inhibition of TNKS1 leads to a decreased incorporation of NAD^+ and consequently to a lower readout signal intensity in the corresponding TNKS1 assays. The concentration of a test compound that inhibits the enzyme activity by 50% (corresponds to half of the normed readout signal intensity) is reported as IC50. The assay was conducted in a 96 well MTP format according to the manufacturer's protocol and using a BMG Pherastar MTP reader [BMG-Labtech, Offenburg, Germany].
# [1] = tested on: wildtype Wnt signaling cascade; assay: HEK293 TOP Assay (Super TopFlash luciferase reporter, Wnt-3a stimulated); type: cell-based; conditions: Homo sapiens, HEK293, 16 h, HEK293 TOP reporter cell line, Wnt-3a at EC50, 16 hours incubation, compound dilution series 50 μM to 15 nM
# Outline: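 HEK293 cells stably carrying Super TopFlash (TOP) or FOP reporter, stimulated with recombinant human Wnt-3a (2500–5 ng/ml, two-fold steps). Both lines incubated in parallel with compound from 50 μM to 15 nM (3.16-fold) in CAFTY buffer pH 7.4 with 2 mM Ca2+ and 0.01% BSA; selectivity judged TOP vs FOP.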
# [2] = tested on: HEK293 FOP control reporter cell line; assay: HEK293 FOP Assay (FOP control vector luciferase reporter); type: cell-based; conditions: Homo sapiens; HEK293 FOP control reporter cell line, 16 hours incubation, compound dilution series 50 μM to 15 nM
# Outline: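 Stable HEK293 line carrying the FOP vector (randomized, non-functional TCF sites; Geneticin-selected) was run in parallel with the TOP line. Cells were plated 24 h ahead at 10000/well and given recombinant human Wnt-3a at 2500–5 ng/ml. Compounds were tested at 50 μM–15 nM (3.16-fold steps) in CAFTY buffer, pH 7.4, with 2 mM Ca2+ and 0.01% BSA.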
IC50 (TNKS1),IC50 [1],Compound,IC50 [2]
30 nM,440 nM,"CCN(CC)CCCNC(=O)c1nc[nH]c1C(=O)Nc1ccc(NC(=O)c2ccc(F)cc2Cl)cc1 [Example 388, N^5-{4-[(2-chloro-4-fluorobenzoyl)amino]phenyl}-N^4-[3-(diethylamino)propyl]-1H-imidazole-4,5-dicarboxamide]",17000 nM
1 nM,140 nM,"CN(C)CCNC(=O)c1nc[nH]c1C(=O)Nc1ccc(NC(=O)c2ccc(F)cc2Cl)nc1 [Example 109, N^5-{6-[(2-chloro-4-fluorobenzoyl)amino]pyridin-3-yl}-N^4-[2-(dimethylamino)ethyl]-1H-imidazole-4,5-dicarboxamide]",43000 nM
180 nM,340 nM,"CN(C)CC(C)(C)CNC(=O)c1nc[nH]c1C(=O)Nc1ccc(NC(=O)c2ccc(F)cc2Cl)cc1 [Example 396, N^5-{4-[(2-chloro-4-fluorobenzoyl)amino]phenyl}-N^4-[3-(dimethylamino)-2,2-dimethylpropyl]-1H-imidazole-4,5-dicarboxamide]",25000 nM
30 nM,140 nM,"CN(C)C(C)(C)CNC(=O)c1nc[nH]c1C(=O)Nc1ccc(NC(=O)c2ccc(F)cc2Cl)cc1 [Example 412, N^5-{4-[(2-chloro-4-fluorobenzoyl)amino]phenyl}-N^4-[2-(dimethylamino)-2-methylpropyl]-1H-imidazole-4,5-dicarboxamide]",–
60 nM,230 nM,"CN(C)CCCCCNC(=O)c1nc[nH]c1C(=O)Nc1ccc(NC(=O)c2ccc(F)cc2Cl)cc1 [Example 378, N^5-{4-[(2-chloro-4-fluorobenzoyl)amino]phenyl}-N^4-[5-(dimethylamino)pentyl]-1H-imidazole-4,5-dicarboxamide]",27000 nM
20 nM,120 nM,"CCN(CC)CCNC(=O)c1nc[nH]c1C(=O)Nc1ccc(NC(=O)c2ccc(F)cc2Cl)cc1 [Example 382, N^5-{4-[(2-chloro-4-fluorobenzoyl)amino]phenyl}-N^4-[2-(diethylamino)ethyl]-1H-imidazole-4,5-dicarboxamide]",–

# The next lines start with the compound.
Compound,IC50 (TNKS1),IC50 [1],IC50 [2]
"CC(C)(C)NC(=O)c1[nH]cnc1C(=O)Nc1ccc(NC(=O)c2ccc(F)cc2Cl)cc1 [Example 133, N^5-tert-butyl-N^4-{4-[(2-chloro-4-fluorobenzoyl)amino]phenyl}-1H-imidazole-4,5-dicarboxamide]",200 nM,430 nM,8700 nM
"CN1CC2(C1)CN(C(=O)c1nc[nH]c1C(=O)Nc1ccc(NC(=O)c3cc(F)c(F)cc3Cl)cc1)C2 [Example 50, N N-{4-[(2-chloro-4,5-difluorobenzoyl)amino]phenyl}-4-[(6-methyl-2,6-diazaspiro[3.3]hept-2-yl)carbonyl]-1H-imidazole-5-carboxamide]",130 nM,120 nM,13000 nM
"CC1CCCC(C)N1CCNC(=O)c1nc[nH]c1C(=O)Nc1ccc(NC(=O)c2ccc(F)cc2Cl)cc1 (centres unmarked) [Example 401, N^5-{4-[(2-chloro-4-fluorobenzoyl)amino]phenyl}-N^4-[2-(2,6-dimethylpiperidin-1-yl)ethyl]-1H-imidazole-4,5-dicarboxamide]",180 nM,330 nM,21000 nM
"O=C(Nc1ccc(NC(=O)c2nc[nH]c2C(=O)NCCCN2CCCCC2)cc1)c1ccc(F)cc1Cl [Example 297, N^4-{4-[(2-chloro-4-fluorobenzoyl)amino]phenyl}-N^5-[3-(piperidin-1-yl)propyl]-1H-imidazole-4,5-dicarboxamide]",> 500 nM,1050 nM,22500 nM
"O=C(Nc1ccc(NC(=O)c2[nH]cnc2C(=O)NCCCCCN2CCCC2)cc1)c1ccc(F)cc1Cl [Example 406, N^5-{4-[(2-chloro-4-fluorobenzoyl)amino]phenyl}-N^4-[5-(pyrrolidin-1-yl)pentyl]-1H-imidazole-4,5-dicarboxamide]",70 nM,350 nM,26000 nM
"CC1CCCCN1CCCNC(=O)c1nc[nH]c1C(=O)Nc1ccc(NC(=O)c2ccc(F)cc2Cl)cc1 (centres unmarked) [Example 386, N^5-{4-[(2-chloro-4-fluorobenzoyl)amino]phenyl}-N^4-[3-(2-methylpiperidin-1-yl)propyl]-1H-imidazole-4,5-dicarboxamide]",60 nM,460 nM,15000 nM
"O=C(Nc1ccc(NC(=O)c2[nH]cnc2C(=O)NCCN2CCS(=O)(=O)CC2)cc1)c1ccc(F)cc1Cl [Example 402, N^5-{4-[(2-chloro-4-fluorobenzoyl)amino]phenyl}-N^4-[2-(1,1-dioxidothiomorpholin-4-yl)ethyl]-1H-imidazole-4,5-dicarboxamide]",260 nM,170 nM,–
"O=C(Nc1ccc(NC(=O)c2nc[nH]c2C(=O)NCCN2CCC[C@H](F)C2)cc1)c1ccc(F)cc1Cl [Example 276, N^4-{4-[(2-chloro-4-fluorobenzoyl)amino]phenyl}-N^5-{2-[(3S)-3-fluoropiperidin-1-yl]ethyl}-1H-imidazole-4,5-dicarboxamide]",50 nM,110 nM,31000 nM
"CN1CCC(NC(=O)c2nc[nH]c2C(=O)Nc2ccc(NC(=O)c3ccc(F)cc3Cl)cc2)CC1 [Example 414, N^5-{4-[(2-chloro-4-fluorobenzoyl)amino]phenyl}-N^4-(1-methylpiperidin-4-yl)-1H-imidazole-4,5-dicarboxamide]",50 nM,270 nM,33000 nM
"COC1CCN(CCNC(=O)c2[nH]cnc2C(=O)Nc2ccc(NC(=O)c3ccc(F)cc3Cl)cc2)C1 (centres unmarked) [Example 265, N^4-{4-[(2-chloro-4-fluorobenzoyl)amino]phenyl}-N^5-[2-(3-methoxypyrrolidin-1-yl)ethyl]-1H-imidazole-4,5-dicarboxamide]",7 nM,120 nM,–
"O=C(Nc1ccc(NC(=O)c2nc[nH]c2C(=O)NCCN2CCC(O)CC2)cc1)c1ccc(F)cc1Cl [Example 212, N^4-{4-[(2-chloro-4-fluorobenzoyl)amino]phenyl}-N^5-[2-(4-hydroxypiperidin-1-yl)ethyl]-1H-imidazole-4,5-dicarboxamide]",5 nM,70 nM,–
"CC(C)[C@@H](CO)NC(=O)c1nc[nH]c1C(=O)Nc1ccc(NC(=O)c2ccc(F)cc2Cl)cc1 [Example 379, N^5-{4-[(2-chloro-4-fluorobenzoyl)amino]phenyl}-N^4-[(2S)-1-hydroxy-3-methylbutan-2-yl]-1H-imidazole-4,5-dicarboxamide]",190 nM,3200 nM,–
"O=C(Nc1ccc(NC(=O)c2nc[nH]c2C(=O)NCCN2CCC[C@@H](O)C2)cc1)c1ccc(F)cc1Cl [Example 272, N^4-{4-[(2-chloro-4-fluorobenzoyl)amino]phenyl}-N^5-{2-[(3R)-3-hydroxypiperidin-1-yl]ethyl}-1H-imidazole-4,5-dicarboxamide]",70 nM,120 nM,–

# — US9884063B2, “Amido-substituted azole compounds” (Bayer Pharma Aktiengesellschaft, priority 2014, dated 2018)
